According to patent publication US11866443B2, “Method for separating optically active hydroxy cineole derivatives” (BASF Agro B.V., priority 2017, dated 2024):
Converted amounts (≈) assume the structure as drawn.

Experiment: Solubility of racemic and enantiopure hydroxy cineol in different solvents at room temperature
Conditions: for Solubility: room temperature
Procedure: The solubility of racemic hydroxy cineol and enantiopure hydroxy cineol was checked at room temperature in solvents namely, petroleum ether, n-pentane, n-hexane, n-heptane, iso-octane, cyclohexane and toluene.
The solubility at room temperature was determined by adding under stirring small portions of the substance to 5 mL of solvent until it reached saturation and formation of a no more soluble sediment was observed.

Q: For `CC(C)C12CCC(C)(O1)C(O)C2` (racemic) [Racemate, hydroxy cineol], which Solubility (cyclohexane) is on record?
A: 0.38 g/mL (≈ 2230 mM)

Q: And the Solubility (iso-octane)?
A: 0.075 g/mL (≈ 441 mM)

Q: And the “solubility of racemate relative to the optical pure hydroxy-cineol” value (n-heptane)?
A: 8 fold

Q: What about the Solubility (n-heptane) of the same molecule?
A: 0.08 g/mL (≈ 470 mM)

Q: What about the Solubility (n-hexane) of the same molecule?
A: 0.1 g/mL (≈ 587 mM)

Q: And the Solubility (n-pentane)?
A: 0.15 g/mL (≈ 881 mM)

Q: And the “solubility of racemic compound compared with optical pure material” value (non-polar solvents)?
A: much better soluble

Q: What about the Solubility (petroleum ether) of the same molecule?
A: 0.12 g/mL (≈ 705 mM)

Q: What about the Solubility (toluene) of the same molecule?
A: 0.8 g/mL (≈ 4700 mM)
